We go through 8 compounds from patent US6399629B1, “Efflux pump inhibitors” (priority 1998, dated 2002).

Where a name gives a salt, the structure may show the parent alone.

In this assay the test system is Pseudomonas aeruginosa PAM1001. The experiment in a line: microbe, parasite or virus in culture. Format: cell-based. The settings on record: for inhibition at 2.5 µg/mL / inhibition at 5 µg/mL / inhibition at 10 µg/mL / inhibition at 20 µg/mL / inhibition at 40 µg/mL: Pseudomonas aeruginosa, PAM1001, read-out: Inhibition (%) of growth of P. aeruginosa PAM1001; for Inhibition (%) of growth of P. aeruginosa PAM1001: Levofloxacin 0.25 μg/mL. The procedure, abridged:
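Growth inhibition is expressed as a percentage relative to a control culture containing 0.25 microg/mL levofloxacin but no EPI. Cultures (MHB, initial 1×10^6 CFU/mL) with levofloxacin and a range of EPI levels were monitored kinetically at 650 nm during 18 h incubation at 37° C.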

Setting [1] is: Concentration of Compound 2.5 μg/mL.
The mark [2] stands for this setting: Concentration of Compound 5 μg/mL.
Where [3] appears, read: Concentration of Compound 10 μg/mL.
Where [4] appears, read: Concentration of Compound 20 μg/mL.
Where [5] appears, read: Concentration of Compound 40 μg/mL.

The term inhibition denotes the drop in the measured response relative to a control, in per cent. As for `NCC(O)[C@@H]1C[C@@H](Oc2cccc(-c3ccccc3)c2)CN1` (stereo partly drawn) [Compound D602, (2S,4R)-2-(2-Amino-1-hydroxyethyl)-4-(3-biphenyloxy)pyrrolidine Dihydrochloride], the inhibition at 2.5 µg/mL amounted to 98%, the inhibition at 5 µg/mL turned out to be 99%, the inhibition at 10 µg/mL amounted to 100% and the inhibition at 20 µg/mL was found to be 100%. Besides, the inhibition at 40 µg/mL amounted to 100%.
For the compound `Cl.Cl.Cl.NC[C@H](O)C(=O)N[C@H]1CN[C@H](C(=O)N2C[C@H](NC(=O)[C@H](O)CCc3ccccc3)C[C@H]2C(=O)Nc2cnc3ccccc3c2)C1` (relative stereo) [Compound D108, trans-4-((S)-3-Amino-2-Hydroxypropionylamino)-L-Prolyl-trans-4-((R)-2-Hydroxy-4-Phenylbutyrylamino)-L-Proline 3-Quinolylamide Trihydrochlonde], the “Inhibition (%) of growth of P. aeruginosa PAM1001” value by setting is: under setting [1], 23%; under setting [2], 22%; under setting [3], 22%; under setting [4], 100%; under setting [5], 101%.
In the case of `NCC(=O)N[C@H]1CN[C@H](C(=O)Nc2ccc(Oc3ccccc3)cc2)C1` [Compound D301, trans-4Glycylamino-L-Proline 4-Phenoxyphenylamide Dihydrochloride], the inhibition at 2.5 µg/mL turned out to be 17%, the inhibition at 5 µg/mL amounted to 14%, the inhibition at 10 µg/mL was 81% and the inhibition at 20 µg/mL was 99%. Also, the inhibition at 40 µg/mL was 99%.
Turning to `NCC(=O)N[C@H]1CN[C@H](C(=O)N2CCN(c3ccccc3Cl)CC2)C1` [Compound D405, 1-(trans-4-Glycylamino-L-Prolyl)-4-(2-Chlorophenyl)-piperazine Dihydrochloride], the inhibition at 2.5 µg/mL was 20%, the inhibition at 5 µg/mL was determined as 19%, the inhibition at 10 µg/mL worked out at 16% and the inhibition at 20 µg/mL is -11%. In addition, the inhibition at 40 µg/mL turned out to be 58%.
The like results for `Cc1cc(C)cc(NC(=O)[C@@H](CCc2ccccc2)NC(=O)[C@@H]2C[C@@H](NC(=O)CN)CN2)c1` [Compound D205, trans-4-Glycylamino-L-Prolyl-D-Homophenylalanine 3,5-Dimethylphenylamide Dihydrochloride] were, in that order, 16%, 13%, 100%, 100% and 100%.
For `Cl.Cl.Cl.NCC(=O)N[C@@H]1CCN[C@H](C(=O)N2C[C@H](NC(=O)[C@H](O)CCc3ccccc3)C[C@H]2C(=O)Nc2cnc3ccccc3c2)C1` (relative stereo) [Compound D115, cis-4-Glycylamino-L-Pipecolinoyl-trans-4-((R)-2-Hydroxy-4-Phenylbutyrylamino)-L-Profine 3-Quinolylamide Trihydrochloride], the “Inhibition (%) of growth of P. aeruginosa PAM1001” value under setting [1] is 15%; the “Inhibition (%) of growth of P. aeruginosa PAM1001” value under setting [2] is recorded as 16%; the “Inhibition (%) of growth of P. aeruginosa PAM1001” value under setting [3] came to 8%; the “Inhibition (%) of growth of P. aeruginosa PAM1001” value under setting [4] amounted to 50%; the “Inhibition (%) of growth of P. aeruginosa PAM1001” value under setting [5] came to 100%.
On to `NCC(=O)N[C@@H]1CN[C@@H](COc2ccc(-c3ccccc3)cc2)C1` [Compound D503, (2R,4S)-4-Glycylamino-2-(4-Biphenyloxy)methyl-pyrrolidine Dihydrochloride], for which the inhibition at 2.5 µg/mL came out at 22%, the inhibition at 5 µg/mL was determined as 15%, the inhibition at 10 µg/mL stood at 100% and the inhibition at 20 µg/mL is 100%. For the same compound, the inhibition at 40 µg/mL worked out at 100%.
For the compound `NCC(=O)N[C@@H]1CN[C@@H](COc2cccc(-c3ccccc3)c2)C1` [Compound D504, (2R,4S)-4-Glycylamino-2-(3-Biphenyloxy)methyl-pyrrolidine Dihydrochloride], the inhibition at 2.5 µg/mL worked out at 22%, the inhibition at 5 µg/mL is 3%, the inhibition at 10 µg/mL turned out to be 74% and the inhibition at 20 µg/mL is 100%. In addition, the inhibition at 40 µg/mL stood at 99%.
